Reference: patent US7056679B2, “Target specific screening and its use for identifying target binders” (Antyra, Inc., priority 2001, dated 2006)

How the values were obtained:
DGI-2 = molecular target: T1, DGI-2 (Homo sapiens, UniProt Q15004); experiment: ELISA analysis of phage on DGI-2 polypeptide (specific binding); conditions: for DGI-2 (OD): binding to DGI-2 polypeptide (specific binding), phage ELISA units read at 405 nm; for DGI-2/LDH (OD): ratio of specific binding to non-specific binding
T1 construct: encompassed the entire DGI-2 open reading frame (ORF); His-tag of vector pIVEX2.3-MCS (inferred from the vector and from the reverse primer lacking a stop codon); made in house; host or cells: cell-free in vitro translation (Rapid Translation System RTS, Roche; E. coli lysate)
T1 sequence (Q15004 1-111): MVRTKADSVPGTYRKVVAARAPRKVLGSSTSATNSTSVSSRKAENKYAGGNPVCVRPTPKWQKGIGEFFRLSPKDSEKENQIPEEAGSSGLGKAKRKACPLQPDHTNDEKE
Method: To verify that the selected target binders bound to DGI-2, Elisa assays were performed with recombinant DGI-2. DGI-2 was subcloned and expressed using conventional methods as described below.
Protein yields were satisfactory, but most of protein was found in inclusion bodies. Next, DGI-2 was expressed using an in vitro translation system (Rapid Translation System RTS 5000, Roche Diagnostics GmbH, Mannheim Germany). For this system, the DGI-2 ORF was cloned into the pIVEX2.3-MCS vector (Roche Diagnostics) using restriction sites Nde I and Hind III, which were added to DGI-2 by PCR. […] The primers used for the PCR amplification were as follows: […]
(§1) For analysis of individual target binders, colonies were picked and phage prepared as described above using helper phage, M13KO7. Ninety-six-well microtiter plates were coated with 500 ng/well of specific target protein, 500 ng/well lactate dehydrogenase (LDH) irrelevant or non-specific target, 500 ng/well of positive control antibody raised against ETAG, and negative control of non-fat milk powder-PBS 2% at 4° C. overnight. Plates were then blocked with 350 microliters/well PBS containing 2% non-fat milk for 1 hr at room temperature. One hundred microliters per well of phage from isolated clones were added and plates were incubated at room temperature for 2 hr after centrifuging samples for 20 minutes at 3500 rpm at 4° C. The phage solution was then removed, and the wells were washed three times with PBS at room temperature. Antibody raised against M13 conjugated to horseradish peroxidase (Pharmacia) was diluted 1:3000 in PBS-Tween and added to each well (100 μl/well). Incubation was for 1 hr at room temperature, followed by washing with PBS-(0.5%) Tween 3 times as described. Color was developed by addition of ABTS solution (100 μl/well; Boehringer, Indianapolis, Ind.). Plates were analyzed at 405 nm. A clone was considered “positive” if the A405 of the well was ≧2-fold over background.

[1] = system: lactate dehydrogenase (LDH); experiment: ELISA analysis of phage on LDH (irrelevant, non-specific target); format: binding; conditions: for LDH (OD): peptide binding to LDH polypeptide (non-specific binding), phage ELISA units read at 405 nm; for LDH: DGI-9 binders, LDH control irrelevant protein, ratio over background
Method: as §1

E-tag antibody = experiment: ELISA analysis of phage on antibody raised against ETAG (positive control); conditions: peptide binding to E-tag antibody; phage ELISA units read at 405 nm
Method: as §1

Substance	DGI-2 (OD) (DGI-2)	DGI-2/LDH (OD) (DGI-2)	LDH (OD) [1]	ETAG (OD) (E-tag antibody)	LDH [1]
ACSVGTALVFPQRWWYLGRS (DGI-2-20R-3-D6; listed as Escherichia coli) [DGL-2-20R-3-D6]	2.2 OD	2.1	1.1 OD	12.9 OD	
ALRSLGSGGFGWQAGRASPQGMTHFPYFGWSGMPTARVRP (DGI-2-40F-3-D7; listed as Escherichia coli)	2.6 OD	2.6	1.0 OD	10.3 OD	
CAYRWGLFRGPGRVDYDLQVVGIMMWPGPIPDRSSRGSVA (DGI-2-40F-3-A7; listed as Escherichia coli)	0.9 OD	1.1	0.8 OD	8.7 OD	
CCAWNGVGVGGLGWRVVVGP (DGI-2-20F-PP-H4; listed as Escherichia coli)	2.1 OD	2.2	1.0 OD	32.9 OD	
CGGWGAMWEAWVQGLNGAGC (DGI-2-20R-3-D4; listed as Escherichia coli)	8.7 OD	8.1	1.1 OD	18.9 OD	
CRNFGVIWGAGWVSPGCEDJ (CRNFGVIWGAGWVSPGCEDI; not fully specified; non-natural residue J; DGI-2-20F-3-A1; listed as Escherichia coli) [DGI-2-20E-3-A1]	2.8 OD	3.0	1.0 OD	14.3 OD	
CYLSRLFRSGQGIGQFGHVE (DGI-2-20F-PP-A82; listed as Escherichia coli)	2.5 OD	2.3	1.1 OD	16.5 OD	
DAGIGWVGSMWFPPGCIGAC (DGI-2-20R-4-E82; listed as Escherichia coli)	3.9 OD	3.7	1.1 OD	19.6 OD	
DDIVCLFQFCTMFCWLDMGW (DDIVCLFQFCIMFCWLDMGW; DGI-2-20F-PP-H3; listed as Escherichia coli)	2.3 OD	1.3	1.8 OD	3.7 OD	
DGKHLTKWSGRGWWSAWVGG (DGI-2-20R-3-B12; listed as Escherichia coli)	5.7 OD	5.5	1.0 OD	15.5 OD	
DGRGWGAMWMRWAEGLGADI (DGI-2-20R-4-G114; listed as Escherichia coli)	12.9 OD	11.0	1.2 OD	16.5 OD	
DQRVVGSGWFERLRNWYDRA (DGI-2-20R-4-G99; listed as Escherichia coli)	7.5 OD	7.2	1.0 OD	14.1 OD	
DRHRAFVAEGLDGFRHSTGV (DGI-2-20F-PP-D4; listed as Escherichia coli)	2.6 OD	2.3	1.1 OD	44.0 OD	
DRSRAPLCADKSGRWQRYRR (DGI-2-20F-PP-C10; listed as Escherichia coli)	2.7 OD	3.1	0.9 OD	8.6 OD	
DRVARLATPTAGTMAAGSLGYERTVGCDSQDWFRCVVEGL (DGI-2-40F-3-D1044; listed as Escherichia coli)	7.9 OD	6.2	1.3 OD	17.7 OD	
DSEA*RVWYSGFLRRLGHMC (DSEARVWYSGFLRRLGHMC; DGI-2-20F-PP-F7; listed as Escherichia coli)	2.1 OD	2.1	1.0 OD	3.3 OD	
DVGAVVRSGHCASRPGE*QVR (DVGAVVRSGHCASRPGEQVR; DGI-2-20F-PP-H9; listed as Escherichia coli)	1.6 OD	1.5	1.1 OD	13.6 OD	
DYKGRTMTSPIMSALPVYDRLHGIGSRGQNMD (DYKGRTMTSPIMSALPVYDRLHGAIGSRGQNMD; DGI-2-20C-3-B3; listed as Escherichia coli)	0.8 OD	0.9	0.9 OD	7.7 OD	
DYKTCVSQHVHPLFGEYFYHKVTHMSILSPTFRVTSLYG.K (DYKTCVSQHVHPLFGEYFYHKVTHMSILSPTFRVTSLYGK; DGI-2-40F-3-B95; listed as Escherichia coli)	1.0 OD	1.2	0.8 OD	5.4 OD	

Substance	DGI-2 (OD) (DGI-2)	DGI-2/LDH (OD) (DGI-2)	LDH (OD) [1]	ETAG (OD) (E-tag antibody)	LDH [1]
EGNWFCAVFRGFCVGDRGPE (DGI-2-20R-3-A1; listed as Escherichia coli)	7.1 OD	6.3	1.1 OD	11.1 OD	
EGQRVVFLFGALVAGLCWRDR (DGI-2-20F-PP-F3; listed as Escherichia coli)	2.6 OD	2.2	1.1 OD	18.7 OD	
ERVSKCVGRGSGRSVGQFGG (DGI-2-20F-PP-F1; listed as Escherichia coli)	3.0 OD	3.4	0.9 OD	11.1 OD	
EVFVSVWVFRFRVMPVTPGGT (DGI-2-20F-PP-E6; listed as Escherichia coli)	3.0 OD	2.6	1.2 OD	4.1 OD	
FGRDGDGIQRRQGGFSWVGDR (DGI-2-20F-PP-E2; listed as Escherichia coli)	1.7 OD	2.4	0.7 OD	11.6 OD	
FGSTAYADMLSQFRKFAMNIS (DGI-2-20F-PP-E1; listed as Escherichia coli)	1.8 OD	1.9	1.0 OD	33.4 OD	
FLLQDFIMDAGSFVKPIGVG [DGI9-20M-4-A414]					1.1
FRMWVQSCFWGQPGTGCGEG (DGI-2-20R-3-D2; listed as Escherichia coli)	7.9 OD	7.5	1.1 OD	14.3 OD	
FRVALLSVSAGPCEGSGNT (DGI-2-20F-PP-H7; listed as Escherichia coli)	1.8 OD	2.1	0.8 OD	3.7 OD	
FSSTGILLRSGRATAVGHVT (DGI-2-20F-3-A6; listed as Escherichia coli)	1.5 OD	1.4	1.1 OD	13.2 OD	
FSSVLGLLDRRGVPVVVGED (DGI-2-20F-3-C3; listed as Escherichia coli)	1.1 OD	1.1	0.9 OD	11.6 OD	
GAIRLSGAAWTASRTGGRAS (DGI-2-20F-PP-E7; listed as Escherichia coli)	1.6 OD	1.8	0.9 OD	21.5 OD	
GASRVVDVGWRFWGKLWQRS (DGI-2-20F-PP-G5; listed as Escherichia coli)	2.4 OD	2.0	1.2 OD	27.7 OD	
GEVDCVYALTHRFLSPQVQYHIHRPV (GEVDCVYALTHRFLSPQVQYHHRPV; DGI-2-20C-3-A12; listed as Escherichia coli)	0.9 OD	1.0	0.9 OD	8.1 OD	
GGDLGEQGVQLCPDVVRGGSL (DGI-2-20F-PP-A7; listed as Escherichia coli)	2.6 OD	2.8	0.9 OD	42.2 OD	
MAGFRGSGLSGYSEARLPRV [DGI9-20M-4-E3]					1.0
SRLALSSQHGLSLVAGRRRG [DGI9-20M-4-A12]					0.9
WDWSRFGAQLRGAILGRATG [DGI9-20M-4-A627]					0.9
